From paper PMC9442423, “Extracellular loop 2 of G protein–coupled olfactory receptors is critical for odorant recognition” (The Journal of Biological Chemistry, 2022) come the findings set out here.

The first assay addresses T1, mOR256-3 (Mus musculus, UniProt Q0VEF0).
T1 construct: gene Olfr124; full-length receptor from Dr H. Matsunami, expressed in Hana3A cells; surface detected by antirhodopsin antibody
T1 sequence (Q0VEF0 1-315): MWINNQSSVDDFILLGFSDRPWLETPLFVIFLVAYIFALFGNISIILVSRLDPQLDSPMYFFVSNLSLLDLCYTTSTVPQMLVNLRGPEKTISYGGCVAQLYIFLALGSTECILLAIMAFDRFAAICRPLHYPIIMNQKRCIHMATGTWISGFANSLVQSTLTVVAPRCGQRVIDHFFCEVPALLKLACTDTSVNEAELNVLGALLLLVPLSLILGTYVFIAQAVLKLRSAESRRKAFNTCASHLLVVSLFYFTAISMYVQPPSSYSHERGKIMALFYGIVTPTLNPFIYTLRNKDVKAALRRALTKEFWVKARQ
The assay is described as follows: CRE-luciferase cAMP reporter in Hana3A cells, dose-response fit. In kind it is cell-based. The conditions noted are these: agonist; 4 h, 37 °C, 5% CO2.
As for `C=C(C)[C@@H]1CC=C(C)C(=O)C1` [R-carvone], the EC50 entry is listed as “Ten odorants activated mOR256-3 in a dose-dependent manner”.

Regarding `CC(C)=CCC/C(C)=C/CO` [geraniol], the EC50 entry is “Ten odorants activated mOR256-3 in a dose-dependent manner”. On the same count and under the same terms, as for `CC(=O)OCc1ccccc1` [benzyl acetate], the entry is “Ten odorants activated mOR256-3 in a dose-dependent manner”; as for `CCCCCCCCO` [1-octanol], “Ten odorants activated mOR256-3 in a dose-dependent manner”; as for `CCCCCC(C)=O` [2-heptanone], “Ten odorants activated mOR256-3 in a dose-dependent manner”. With `O=c1ccc2ccccc2o1` [coumarin], the EC50 entry is on record as “Ten odorants activated mOR256-3 in a dose-dependent manner”.

As to `C=CCOC(=O)Cc1ccccc1` [allyl phenylacetate], the EC50 result was “Ten odorants activated mOR256-3 in a dose-dependent manner”. As for `CCCCCCCC(=O)O` [octanoic acid], the EC50 result was “Ten odorants activated mOR256-3 in a dose-dependent manner”. For `CCCCCCCC=O` [octanal], the EC50 result is given as “Ten odorants activated mOR256-3 in a dose-dependent manner”.

The same assay, now with this note: agonist; 4 h, 37 °C, 5% CO2; E/Z composition of citral not stated.
With `CC(C)=CCCC(C)=CC=O` [citral], the EC50 result was “Ten odorants activated mOR256-3 in a dose-dependent manner”.

The target of a further assay is T1, mOR256-3. The assay is described as follows: CRE-luciferase cAMP reporter in Hana3A cells, inhibition of odorant response. The conditions noted are these: antagonist against R-carvone, coumarin and geraniol. The format is cell-based.
With `O=Cc1ccccc1` [benzaldehyde], the “CRE-luciferase cAMP reporter in Hana3A cells, inhibition of odorant response” value is “Benzaldehyde antagonized R-carvone, coumarin, and geraniol”.
